Test results taken from US6329531A, “Optical diagnostic agents for diagnosis of neurodegenerative diseases by means of near infrared radiation (NIR radiation)” (Schering AG, priority 1996, dated 2001).
Counter-ions that a name gives are not always drawn.

Assay: Absorption and fluorescence maxima of the dye in water
Assay type: physicochemical
Conditions: H2O

λMax.absorption (H2 O) | λMax.fluorescence (H2 O) | SMILES
746 nm | 780 nm | CC1(C)C(=CC=CC=CC=CC2=[N+](CCCCS(=O)(=O)[O-])c3ccc(C(=O)NCC(COS(=O)(=O)O)OS(=O)(=O)O)cc3C2(C)C)N(CCCCS(=O)(=O)O)c2ccccc21 (stereo not shown) [Example 1, N-(2,3-disulfato)propyl-1,1'-bis-(4-sulfobutyl)indotricarbocyanine-5-carboxylic acid amide, trisodium salt]
745 nm | 779 nm | CC1(C)C(=CC=CC=CC=CC2=[N+](CCCCS(=O)(=O)[O-])c3ccc(C(=O)N[C@H]4C(O)O[C@H](CO)[C@@H](O)[C@@H]4OS(=O)(=O)O)cc3C2(C)C)N(CCCCS(=O)(=O)O)c2ccccc21 (stereo partly drawn) [Example 2, Bis-1,1'-(4-Sulfobutyl)indotricarbocyanine-5-carboxylic acid-α-D-glucosamide-3"-sulfate, disodium salt]
754 nm | 790 nm | CC1(C)C(=CC=CC=CC=CC2=[N+](CCCCS(=O)(=O)[O-])c3ccc(C(=O)N[C@H]4C(O)O[C@H](CO)[C@@H](O)[C@@H]4OS(=O)(=O)O)cc3C2(C)C)N(CCCCS(=O)(=O)O)c2ccc(C(=O)N[C@H]3C(O)O[C@H](CO)[C@@H](O)[C@@H]3OS(=O)(=O)O)cc21 (stereo partly drawn) [Example 3, Bis-1,1'-(4-Sulfobutyl)indotricarbocyanine-5,5'-dicarboxylic acid-di-α-D-glucosamide-di-3"-sulfate, trisodium salt]
746 nm | 779 nm | CC1(C)C(=CC=CC=CC=CC2=[N+](CCCCS(=O)(=O)[O-])c3ccc(C(=O)N[C@H]4C(O)O[C@H](CO)[C@H](O)[C@@H]4O[C@@H]4O[C@H](C(=O)O)[C@@H](O)[C@H](O)[C@H]4O)cc3C2(C)C)N(CCCCS(=O)(=O)[O-])c2ccccc21.[Na+] (stereo partly shown) [Example 4, N-Chondrosin-bis-1,1'-(4-sulfobutyl)indotricarbocyanine-5-carboxylic acid amide, sodium salt]
748 nm | 779 nm | CC1(C)C(=CC=CC=CC=CC2=[N+](CCCCS(=O)(=O)[O-])c3ccc(C(=O)NC4OC(CO)C(OC5OC(CO)C(OC6OC(CO)C(O)C(O)C6O)C(O)C5O)C(O)C4O)cc3C2(C)C)N(CCCCS(=O)(=O)O)c2ccccc21 (stereo not shown) [Example 5]
